# Assays:
# A549-ADAMTS4 KO cells = experiment: Aβ-related peptide production in culture supernatant of A549-ADAMTS4 KO cells by IP-MS (Example 1); assay type: cell-based, human; details: 25 μM, 96 hours, compared with DMSO control
# Procedure: In A549 cells, an influence on production of APP669-x caused by ADAMTS4 knockout using CRISPR/Cas9 (clustered regularly interspaced short palindromic repeats/CRISPR associated proteins) and guide RNA (gRNA), and a treatment with GM6001, a metalloprotease inhibitor, was evaluated. A549 cell is human adenocarcinomic alveolar basal epithelial cell. The gRNA was designed using CRISPR Search (https://www.sanger.ac.uk/htgt/wge/find_crisprs).
# Vectors in which cDNAs respectively encoding paired gRNAs targeting ADAMTS4 were inserted respectively into vector px335 (Addgene 042335) expressing SpCas9 nickase and gRNA and retrovirus-derived vector pBabe Puro U6 BbsI (donated by Professor Dario Alessi, Dundee University) were constructed.
# These vectors were transfected, and the resultant transfectants were subjected to selection with puromycin for monocloning. A genome was extracted from each monoclonal cell, and a genome fragment including a gene region targeted by gRNA was amplified by PCR to be subjected to sanger sequencing. Primers used for amplifying the genome fragment were as follows: […]
# As a result of analysis of a plurality of monoclonal cells, it was presumed that ADAMTS4 gene region of A549 cell has three alleles. Then, a monoclonal cell respectively having deletion of 16 bp, 29 bp and 20 bp in the gene region of ADAMTS4 gene as shown in FIG. 2 was obtained. Since none of these is a multiple of 3, it is presumed that normal ADAMTS4 protein is not expressed. Therefore, it was regarded that this cell is A549 cell having endogenous ADAMTS4 knockout (KO) (A549-ADAMTS4 KO cell).
# A metalloprotease inhibitor, GM6001 (25 μM), or dimethylsulfoxide (DMSO) used as a control was added to each of A549-ADAMTS4 KO cells and A549-wild type (wt) cells, and the resultant cells were incubated for 96 hours. Thereafter, a culture supernatant was collected, and stored at −80° C. until measurement.
# (§1) An Aβ-related peptide contained in the culture supernatant was measured by IP-MS corresponding to a combination of immunoprecipitation (IP) and mass spectrometry (MS). In IP, antibody immobilized beads obtained by covalent binding of anti-Aβ antibody clone 6E10 (BioLegend) to Dynabeads Epoxy (Thermo Fisher Scientific) were used.
# The cryopreserved culture supernatant was thawed, and 250 μL of a reaction liquid containing internal standard peptides [800 mM GlcNAc, 0.2/a (w/v) NTM, 0.2% (w/v) DDM, 300 mM NaCl, and 100 mM Tris-HCl buffer (pH 7.4)] was mixed with 250 μL of the culture supernatant. The thus obtained mixture was mixed with the antibody immobilized beads, followed by an antigen antibody reaction at 4° C. for 1 hour. As the internal standard peptides, 22 μM stable isotope labeled Aβ1-38 and 100 μM stable isotope labeled A31-15 were used. […]
# [1] = test system: A549-wild type (wt) cells; experiment: Aβ-related peptide production in culture supernatant of A549-wt cells by IP-MS (Example 1); assay type: cell-based, human; details: 25 μM, 96 hours, compared with DMSO control
# Procedure: After the antigen antibody reaction, the antibody immobilized beads were washed with a first washing buffer [washed once with 100 μL of the first washing buffer (0.1% DDM, 0.1% NTM, 50 mM Tris-HCl (pH 7.4) and 150 mM NaCl), and then once with 50 μL of a 50 mM ammonium acetate buffer]. Thereafter, the Aβ-related peptide captured by the antibody immobilized beads was eluted with a glycine buffer containing DDM (50 mM glycine buffer containing 0.1% of DDM, pH 2.8). To the thus obtained eluate, Tris buffer containing DDM [800 mM GlcNAc, 0.2% (w/v) DDM, 300 mM NaCl, and 300 mM Tris-HCl buffer (pH 7.4)] was added to restore the pH to neutral (pH 7.4). Thereafter, the neutral eluate was contacted with the antibody immobilized beads at 4° C. for 1 hour again to cause the antigen antibody reaction of the Aβ-related peptide. The resultant was washed with a second washing buffer [washed twice with 100 μL of the second washing buffer (0.1% DDM, 150 mM Tris-HCl (pH 7.4), and 150 mM NaCl), and once with 50 μL of a 50 mM ammonium acetate buffer], and then, the Aβ-related peptide captured by the antibody immobilized beads was eluted with an eluent (5 mM HCl, 0.1 mM methionine, and 70% (v/v) acetonitrile). In this manner, each eluate containing the Aβ-related peptide was obtained through two-stage IP operation. […]
# [2] = test system: human neuroblastoma BE(2)-C; experiment: Aβ-related peptide production in culture supernatant of BE(2)-C cells by IP-MS (Example 4); assay type: cell-based; details: for APP669 cleavage activity (on the N-terminal side): conclusion from BE(2)-C and A549 cells
# Procedure: as §1
# (§2) The cryopreserved culture supernatant was thawed, and 250 μL of a reaction liquid containing internal standard peptides [800 mM GlcNAc, 0.2/a (w/v) NTM, 0.2% (w/v) DDM, 300 mM NaCl, and 100 mM Tris-HCl buffer (pH 7.4)] was mixed with 250 μL of the culture supernatant. The thus obtained mixture was mixed with the antibody immobilized beads, followed by an antigen antibody reaction at 4° C. for 1 hour. As the internal standard peptides, 22 μM stable isotope labeled Aβ1-38 and 100 μM stable isotope labeled A31-15 were used.
# (§3) After the antigen antibody reaction, the antibody immobilized beads were washed with a first washing buffer [washed once with 100 μL of the first washing buffer (0.1% DDM, 0.1% NTM, 50 mM Tris-HCl (pH 7.4) and 150 mM NaCl), and then once with 50 μL of a 50 mM ammonium acetate buffer]. Thereafter, the Aβ-related peptide captured by the antibody immobilized beads was eluted with a glycine buffer containing DDM (50 mM glycine buffer containing 0.1% of DDM, pH 2.8). To the thus obtained eluate, Tris buffer containing DDM [800 mM GlcNAc, 0.2% (w/v) DDM, 300 mM NaCl, and 300 mM Tris-HCl buffer (pH 7.4)] was added to restore the pH to neutral (pH 7.4). Thereafter, the neutral eluate was contacted with the antibody immobilized beads at 4° C. for 1 hour again to cause the antigen antibody reaction of the Aβ-related peptide. The resultant was washed with a second washing buffer [washed twice with 100 μL of the second washing buffer (0.1% DDM, 150 mM Tris-HCl (pH 7.4), and 150 mM NaCl), and once with 50 μL of a 50 mM ammonium acetate buffer], and then, the Aβ-related peptide captured by the antibody immobilized beads was eluted with an eluent (5 mM HCl, 0.1 mM methionine, and 70% (v/v) acetonitrile). In this manner, each eluate containing the Aβ-related peptide was obtained through two-stage IP operation.
# (§4) As a matrix for linear TOF, α-cyano-4-hydroxycinnamic acid (CHCA) was used. A matrix solution was prepared by dissolving 1 mg of CHCA in 1 mL of 70% (v/v) acetonitrile. As a matrix additive, 0.4% (w/v) methylenediphosphonic acid (MDPNA) was used. A 1 mg/mL CHCA solution and 0.4% (w/v) MDPNA were mixed in equivalent amounts to obtain a matrix/matrix additive solution [0.5 mg/mL CHCA/0.2% (w/v) MDPNA].
# (§5) Precedently, 0.5 μL of the matrix/matrix additive solution was added in a dropwise manner into respective wells of μFocus MALDI Plate™ 900 μm (Hudson Surface Technology, Inc., Fort Lee, NJ), and then dried.
# (§6) Each eluate resulting from IP was added in a dropwise manner into 4 wells of the μFocus MALDI Plate™ 900 μm, and then dried.
# (§7) Mass spectral data was obtained by linear TOF in the positive ion mode using AXIMA Performance (Shimadzu/KRATOS, Manchester, UK). An m/z value of linear TOF was indicated as an average mass of peaks. The m/z value was calibrated using, as external standards, human angiotensin II, human ACTH fragment 18-39, bovine insulin oxidized beta-chain, and bovine insulin.
# (§8) In the mass spectrum, signal intensity of each Aβ-related peptide was normalized using an internal standard peptide. Thereafter, an average of four normalized intensities obtained from one sample was obtained, which was evaluated as a production amount of the Aβ-related peptide. When there were two or more data not reaching a lower detection limit (S/N<3), it was regarded as undetectable.
# (§9) A metalloprotease inhibitor, 25 μM GM6001 (Cosmobio) or 10 μM INCB3619 (NPL 8), was caused to act on, or DMSO was added as a control to human neuroblastoma BE(2)-C and adenocarcinomic human alveolar basal epithelial cell A549, and the resultant cells were incubated for 96 hours. […]
# APP stable HEK cells = experiment: Aβ-related peptide production in culture supernatant of APP stable HEK cells by IP-MS (Example 4); assay type: cell-based, human; details: 25 μM
# Procedure: As a matrix for linear TOF, α-cyano-4-hydroxycinnamic acid (CHCA) was used. A matrix solution was prepared by dissolving 1 mg of CHCA in 1 mL of 70% (v/v) acetonitrile. As a matrix additive, 0.4% (w/v) methylenediphosphonic acid (MDPNA) was used. […]
# In the mass spectrum, signal intensity of each Aβ-related peptide was normalized using an internal standard peptide. Thereafter, an average of four normalized intensities obtained from one sample was obtained, which was evaluated as a production amount of the Aβ-related peptide. […]
# [3] = test system: adenocarcinomic human alveolar basal epithelial cell A549; experiment: Aβ-related peptide production in culture supernatant of A549 cells by IP-MS (Example 4); assay type: cell-based; details: 96 hours, DMSO control
# Procedure: as §1, §2, §3, §4, §5, §6, §7, §8, §9
# [4] = BE(2)-C cells, 25 μM, 96 hours, DMSO control
# [5] = BE(2)-C cells, 10 μM, 96 hours, DMSO control
compound,measurement,setting,value
CNC(=O)[C@H](Cc1c[nH]c2ccccc12)NC(=O)[C@@H](CC(=O)NO)CC(C)C [GM6001],production amount of APP669-709 (Aβ(−3-38)),A549-ADAMTS4 KO cells,tended to be decreased to substantially a half
same,production amount of APP669-711 (Aβ(−3-40)),A549-ADAMTS4 KO cells,tended to be decreased to substantially a half
same,production amount of Aβ1-38,A549-ADAMTS4 KO cells,tended to be rather increased
same,production amount of Aβ1-40,A549-ADAMTS4 KO cells,tended to be rather increased
same,production amount of APP669-709 (Aβ(−3-38)),[1],tended to be decreased to substantially a half
same,production amount of APP669-711 (Aβ(−3-40)),[1],tended to be decreased to substantially a half
same,production amount of Aβ1-38,[1],tended to be rather increased
same,production amount of Aβ1-40,[1],tended to be rather increased
same,production amount of APP669-709 (Aβ(3-38)),[2]; [4],decreased
same,production amount of APP669-711 (Aβ(−3-40)),[2]; [4],decreased
same,production amount of Aβ1-38,[2]; [4],not decreased
same,production amount of Aβ1-40,[2]; [4],not decreased
same,APP669 cleavage activity (on the N-terminal side),[2]; 25 μM,decreases
same,production amount of APP669-709 (Aβ(3-38)),APP stable HEK cells,decreased
same,production amount of APP669-711 (Aβ(−3-40)),APP stable HEK cells,decreased
same,production amount of Aβ1-38,APP stable HEK cells,not decreased
same,production amount of Aβ1-40,APP stable HEK cells,not decreased
same,production amount of APP669-709 (Aβ(3-38)),[3]; 25 μM,decreased
same,production amount of APP669-711 (Aβ(−3-40)),[3]; 25 μM,decreased
same,production amount of Aβ1-38,[3]; 25 μM,not decreased
same,production amount of Aβ1-40,[3]; 25 μM,not decreased
COC(=O)N1CC2(CC2)C[C@H](C(=O)NO)[C@H]1C(=O)N1CC=C(c2ccccc2)CC1 [INCB3619],production amount of APP669-709 (Aβ(3-38)),[2]; [5],rather slightly decreased
same,production amount of APP669-711 (Aβ(−3-40)),[2]; [5],rather slightly decreased
same,APP669 cleavage activity (on the N-terminal side),[2]; 10 μM,low effect of decreasing
same,production amount of APP669-709 (Aβ(3-38)),[3]; 10 μM,not changed
same,production amount of APP669-711 (Aβ(−3-40)),[3]; 10 μM,not changed
